{"source": "paper PMC9152369", "about": "“Integrated UPLC-Q-TOF-MS/MS and Network Pharmacology Approach to Investigating the Metabolic Profile of Marein of Coreopsis tinctoria Nutt” (Evidence-based Complementary and Alternative Medicine : eCAM, 2022)", "key": {"[1]": {"assay": "Detection of marein and metabolites in rat plasma and urine after tail vein injection (UPLC-Q-TOF-MS/MS)", "type": "in vivo, Sprague–Dawley rats", "set-up": "key to Location (matrix in which the metabolite was detected): P: plasma; U: urine", "conditions": "for Location (matrix in which the metabolite was detected): tail vein injection of marein 10 mg/kg, plasma 0-1 h, urine 24 h; for prototype components after tail vein injection: tail vein injection 10 mg/kg", "protocol": "(§1) Forty-eight healthy male Sprague–Dawley rats, SPF grade, weighing 250 ± 10 g, were purchased from Huafukang Laboratory Animal Technology Co. Ltd. (Beijing, China). Before use, all animals were reared for 5 days at a constant temperature of 25°C, a humidity of 40–60%, and a 12-hour light-dark cycle.\nAfter adaptive feeding of 24 SD rats for 1 week, they were randomly divided into 4 groups, namely: blank blood sample group, blank urine group, marein blood sample group, and marein urine group. The experimental animals were fasted 12 hours before the administration and free drinking water. Marein was dissolved in appropriate amounts of saline and administered to SD rats via tail vein injection at a dose of 10 mg/kg. The blank group was injected with an equal volume of saline through the tail vein.\n(§2) Blood samples were collected from the fundus venous plexus of rats at 0, 0.08, 0.25, 0.5, and 1 h before and after gavage and injection. The blood samples were centrifuged (9,900 g, 10 min) to obtain plasma samples. All plasma samples were stored at −80°C until they were processed and analyzed.\n(§3) Urine samples were collected for 24 hours by gavage and injection in a metabolic cage. All urine samples were stored at −80°C until they were processed and analyzed.\n(§4) Take 100 μL of plasma from each group at the same time point and combine, add 900 μL of acetonitrile, vortex for 3 min, and centrifuge (4°C, 19,500 g) for 10 min. Take the supernatant, blow-dry, and concentrate and then add 900 μL of acetonitrile. Vortex for 3 minutes and then centrifuge (4°C, 19,500 g) for 10 minutes. Take the supernatant, dry it with nitrogen, and concentrate. Add 100 μL of 50% methanol to reconstitute the residue (methanol:water = 1:1), vortex, and centrifuge (4°C, 19,500 g) for 10 minutes. The supernatant was taken and analyzed by UPLC-Q-TOF-MS/MS. The blank plasma sample was processed in the same way.\n(§5) Take 400 μL of urine, add 800 μL of methanol, vortex for 3 minutes, and centrifuge (4°C, 19,500 g) for 10 minutes. Take the supernatant, blow-dry, and concentrate and then add 800 μL of methanol to reconstitute, vortex for 3 minutes, and centrifuge (4°C, 19,500 g) for 10 minutes. In parallel, the supernatants were combined, dried, concentrated with nitrogen, and finally reconstituted with 100 μL 50% methanol (methanol:water = 1:1). The supernatant was analyzed by UPLC-Q-TOF-MS/MS. The blank urine sample was processed in the same way.\n(§6) Used UPLC-Q-TOF-MS/MS 9030 system (Shimadzu, Japan), chromatography column: Shim-pack GISS C18 column (100 × 2.1 mm, 1.9 μm). Mobile phase: A phase 0.1% formic acid water, B phase acetonitrile, gradient elution, elution gradient: 0∼1 min, 5∼10% B; 1∼2 min, 10% B; 2∼3 min, 10∼15% B; 3∼5 min, 15∼20% B; 5∼11 min, 20∼40% B; 11∼13 min, 40∼80% B; 13∼15 min, 80∼95% B; 15∼17 min, 95% B; 17∼20 min, 5% B. Flow rate: 0.3 mL/min; column temperature: 40°C.\n(§7) MS operation conditions were as follows. The Q-TOF-MS spectrometer was configured with an electrospray ion source (ESI) operating in the negative and positive ion modes. Ion source interface voltage is −3.0 Kv. Nitrogen is used as the drying gas and the atomizing gas. The drying gas flow rate is set to 10 L/min, and the atomizing gas flow rate is set to 3.0 L/min. Air is used as heating gas, and the flow rate is set to 10 L/min; argon is used as collision gas; desolvent tube temperature is 250°C; heating block temperature is 400°C; and interface temperature is 300°C. Scan modes are MS Scan (m/z 100–500; 500–1,000) and MS/MS (m/z 50–500; 50–1,000). The collision energy (CE) is 35 ± 17 V.\n(§8) The data obtained by UPLC-Q-TOF-MS/MS were analyzed with Formula Predictor Server software. Target fragments are analyzed by ACD/Labs software accurate mass calculator (Shimadzu City, Japan)."}, "[2]": {"assay": "Detection of marein and metabolites in rat plasma and urine after oral administration (UPLC-Q-TOF-MS/MS)", "type": "in vivo, Sprague–Dawley rats", "set-up": "key to Location (matrix in which the metabolite was detected): P: plasma; U: urine", "conditions": "for Location (matrix in which the metabolite was detected): oral gavage of marein 200 mg/kg, plasma 0-1 h, urine 24 h", "protocol": "as §1\nAfter adaptive feeding for 1 week, 24 SD rats were randomly divided into 4 groups: blank blood sample group, blank urine group, marein blood sample group, and marein urine group. The experimental animals were fasted 12 hours before the administration and free drinking water. Marein was dissolved with an appropriate amount of CMC-Na solution and was administered to SD rats by gavage at a dose of 200 mg/kg. The blank blood sample group was given an equal volume of CMC-Na solution.\nas §2, §3, §4, §5\nUsed UPLC-Q-TOF-MS/MS 9030 system (Shimadzu, Japan), chromatography column: Shim-pack GISS C18 column (100 × 2.1 mm, 1.9 μm). […]\nas §8"}, "[3]": {"set-up": "method as in PMID 27387397", "conditions": "healthy volunteers, tea of C. tinctoria; cited from earlier work"}, "[4]": {"assay": "Metabolic stability of marein in rat liver microsome incubation", "type": "in vitro ADME", "conditions": "for Area% (remaining percentage): 37°C, NADPH", "protocol": "The total volume of the incubation system is 500 μL, including phosphate buffer (0.1 M, pH 7.4) 470 μL, and NADPH generating system 30 μL (Solution A: 25 μL and Solution B: 5 μL). The process is completed on an ice bath.\nMarein blank control group: Take the above incubation system, add 5 μL of aqueous solution to an ice bath, incubate at 37°C for 5 min, and then add 15 μL of liver microsomes to the ice bath. After gently mixing the incubation system by hand, start the incubation at 37°C in a water bath. The incubation time is 0, 5, 15, 30, 45, 60, 90, and 120 min, and each sample is paralleled 3 times. When the reaction is complete, stop the reaction with the same volume of ice acetonitrile to completely precipitate the protein, centrifuge at 4,200 g for 10 min, aspirate the supernatant and centrifuge at 19,500 g for 10 min, and inject 2 μL for analysis.\nMarein inactivated liver microsomes group: First inactivate liver microsomes, take the incubation system, add 5 μL of the marein reference substance stock solution on an ice bath, incubate at 37°C for 5 min, and then add 15 μL of inactivation to the ice bath. The following procedures were similar to the blank control group.\nMarein liver microsomes group: Take the incubation system, add 5 μL of the marein reference substance stock solution to an ice bath, incubate at 37°C for 5 min, and then add 15 μL of liver microsomes to the ice bath. The following operation was the same as the blank control group.\nas §6, §7\nIn the study of metabolism in vivo, the injection volume was 5 μL, while that in vitro metabolism was 2 μL.\nIn the liver microsomes study, the 0 min peak area of marein was regarded as 100%, and other time points were compared with the 0 min peak area to obtain the remaining percentage (area%). According to the natural logarithm of area% and incubation, the time slope k was obtained by linear regression. According to formula (1), the half-life t1/2/min of marein in liver microsomes could be obtained. According to formulas (2)–(5), the half-lives in liver microsomes, intrinsic clearance rate CLint, in vivo intrinsic clearance rate CL′int, liver clearance rate CLH, and liver extraction rate ER were calculated.(1) t1/2=−0.693/k, (2) CLint=0.693/t1/2incubationmL/microsomesmg, (3) CLint′=0.693/t1/2·incubationmL/microsomesmg·Liverg/BWkg·microsmesmg/Liverg, (4) CLH=Q·CLint′/Q+CLint′, (5) ER=CLH/Q.\nThe physical and chemical parameters: The liver tissue per kilogram of body weight for rat (Liver (g)/BW (kg)) was 40 g. Q is hepatic blood flow (66 ml/min/kg for rat), and CL′int is the intrinsic clearance. The microsomal protein per gram of liver tissue (microsomes (mg)/liver (g)) was 45 mg."}}, "note": "Several values for one entry are separate records, joined by “and”; a condition that tells them apart may be missing. Equal values may be shown once. Entries after “also recorded” stand apart in the source; their conditions may differ.", "data": [{"smiles": "O=c1cc(-c2ccc(O)c(O)c2)oc2c(O)c(O[C@@H]3O[C@H](CO)[C@@H](O)[C@H](O)[C@H]3O)ccc12", "note": "[M13]", "values": [{"measurement": "Location (matrix in which the metabolite was detected)", "setting": "[1]; listed as M′10", "result": "P, U"}, {"measurement": "Location (matrix in which the metabolite was detected)", "setting": "[2]", "result": "P"}]}, {"smiles": "O=C(CCc1ccccc1)c1ccc(O[C@@H]2O[C@H](CO)[C@@H](O)[C@H](O)[C@H]2O)c(O)c1O", "note": "[M′17]", "values": [{"measurement": "Location (matrix in which the metabolite was detected)", "setting": "[1]", "result": "U"}]}, {"smiles": "O=C(/C=C/c1ccc(O)c(O)c1)c1ccc(O[C@@H]2O[C@H](CO)[C@@H](O)[C@H](O)[C@H]2O)c(O)c1O", "note": "[marein]", "values": [{"measurement": "prototype components after tail vein injection", "setting": "[1]", "result": "detected"}, {"measurement": "Location (matrix in which the metabolite was detected)", "setting": "[1]", "result": "P, U"}, {"measurement": "marein in blood after drinking C. tinctoria tea", "setting": "[3]", "result": "no marein is detected"}, {"measurement": "prototype in plasma and urine after gavage", "setting": "[2]; oral gavage 200 mg/kg, 200 mg/kg", "result": "no prototype components were found; also recorded: not detected in the original form"}, {"measurement": "marein in plasma after intragastric administration", "setting": "[2]; preliminary experiments of the team", "result": "no marein was found in plasma"}, {"measurement": "CLint (intrinsic clearance rate)", "setting": "[4]; SD rat liver microsomes", "result": "0.0065 mL·(min·mg protein)^−1"}, {"measurement": "t1/2 (in vitro metabolic half-life in liver microsomes)", "setting": "[4]; SD rat liver microsomes", "result": 2.961538, "unit": "h"}, {"measurement": "ER (liver extraction rate)", "setting": "[4]; SD rat, ER=CLH/Q", "result": "0.15 and 0.1506"}, {"measurement": "CLH (liver clearance rate)", "setting": "[4]; SD rat, Q 66 ml/min/kg", "result": 9.9382, "unit": "mL·min/kg"}, {"measurement": "CL′int (in vivo intrinsic clearance rate)", "setting": "[4]; SD rat, scaled with 40 g liver/kg, 45 mg microsomal protein/g liver", "result": 11.7000, "unit": "mL·min/kg"}, {"measurement": "half-life", "setting": "[4]; SD, rat, liver microsomes, pH 7.4, SD rat liver microsomes, read-out: t1/2 (in vitro metabolic half-life in liver microsomes)", "result": 2.96, "unit": "h"}, {"measurement": "Ln (area%)", "setting": "[4]; incubation 0 min", "result": 4.61}, {"measurement": "Area% (remaining percentage)", "setting": "[4]; incubation 0 min, 0 min regarded as 100%", "result": 100, "unit": "%"}, {"measurement": "Ln (area%)", "setting": "[4]; incubation 5 min", "result": 4.59}, {"measurement": "Area% (remaining percentage)", "setting": "[4]; incubation 5 min", "result": 98.69, "unit": "%"}, {"measurement": "Ln (area%)", "setting": "[4]; incubation 15 min", "result": 4.46}, {"measurement": "Area% (remaining percentage)", "setting": "[4]; incubation 15 min", "result": 86.70, "unit": "%"}, {"measurement": "Ln (area%)", "setting": "[4]; incubation 30 min", "result": 4.41}, {"measurement": "Area% (remaining percentage)", "setting": "[4]; incubation 30 min", "result": 82.34, "unit": "%"}, {"measurement": "Ln (area%)", "setting": "[4]; incubation 45 min", "result": 4.36}, {"measurement": "Area% (remaining percentage)", "setting": "[4]; incubation 45 min", "result": 77.93, "unit": "%"}, {"measurement": "Ln (area%)", "setting": "[4]; incubation 60 min", "result": 4.22}, {"measurement": "Area% (remaining percentage)", "setting": "[4]; incubation 60 min", "result": 68.01, "unit": "%"}, {"measurement": "Ln (area%)", "setting": "[4]; incubation 90 min", "result": 4.21}, {"measurement": "Area% (remaining percentage)", "setting": "[4]; incubation 90 min", "result": 67.21, "unit": "%"}, {"measurement": "Ln (area%)", "setting": "[4]; incubation 120 min", "result": 4.14}, {"measurement": "Area% (remaining percentage)", "setting": "[4]; incubation 120 min", "result": 62.76, "unit": "%"}, {"measurement": "metabolic stability in liver microsomes", "setting": "[4]; rat liver microsomes", "result": "good"}]}, {"smiles": "O=C(/C=C/c1cccc(O)c1)c1ccc(O[C@@H]2O[C@H](CO)[C@@H](O)[C@H](O)[C@H]2O)c(O)c1O", "note": "[M′11]", "values": [{"measurement": "Location (matrix in which the metabolite was detected)", "setting": "[1]", "result": "U"}]}, {"smiles": "O=C(/C=C/c1ccc(O)cc1)c1ccc(O[C@@H]2O[C@H](CO)[C@@H](O)[C@H](O)[C@H]2O)c(O)c1O", "note": "[M′12]", "values": [{"measurement": "Location (matrix in which the metabolite was detected)", "setting": "[1]", "result": "U"}]}, {"smiles": "O=C1C[C@@H](c2ccc(O)c(O)c2)Oc2c1ccc(O[C@@H]1O[C@H](CO)[C@@H](O)[C@H](O)[C@H]1O)c2O", "note": "[M′1, flavanomarein]", "values": [{"measurement": "prototype components after tail vein injection", "setting": "[1]", "result": "detected"}, {"measurement": "Location (matrix in which the metabolite was detected)", "setting": "[1]", "result": "P, U"}]}, {"smiles": "O=C(/C=C/c1ccc(O)c(O)c1)c1ccc(O[C@@H]2O[C@H](CO)[C@@H](O)[C@H](O)[C@H]2O)cc1O", "note": "[M′13]", "values": [{"measurement": "Location (matrix in which the metabolite was detected)", "setting": "[1]", "result": "P, U"}]}, {"smiles": "O=C(/C=C/c1ccc(O)c(O)c1)c1ccc(O)c(O)c1O", "note": "[M24, okanin]", "values": [{"measurement": "Location (matrix in which the metabolite was detected)", "setting": "[1]", "result": "U"}, {"measurement": "Location (matrix in which the metabolite was detected)", "setting": "[2]", "result": "P"}]}]}
